These results are taken from ChEMBL document CHEMBL5150062, “Computational design, synthesis and biological evaluation of PDE5 inhibitors based on N2,N4-diaminoquinazoline and N2,N6-diaminopurine scaffolds” (Bioorg Med Chem, 2022).

For series [1], the target named is T1, cGMP-specific 3',5'-cyclic phosphodiesterase (Homo sapiens, UniProt O76074). As to the kind of experiment: Inhibition of human PDE5 using [3H]cGMP as substrate incubated for 10 mins by liquid scintillation counter analysis.
The target in series [2] is T1, cGMP-specific 3',5'-cyclic phosphodiesterase. As to the kind of experiment: Inhibition of human PDE5 using [3H]cGMP as substrate at 1 uM incubated for 10 mins by liquid scintillation counter analysis relative to control.
Series [3] can be described thus: Aqueous solubility of the compound in pH 7.4 PBS measured after 7 hrs by HPLC-UV analysis. The following applies: for solubility at 7 h: PBS, pH 7.4. In kind it is physicochemical.
Series [4] in a line: 1-Octanol/PBS partition coefficient, logD of the compound at pH 7.4 incubated for 7 hrs by shake flask technique based HPLC-UV analysis. It counts as physicochemical.
For a further series, the species on record is Bos taurus. The series is described as follows: Inhibition of bovine heart PDE1 using [3H]cGMP as substrate at 10 uM incubated for 10 mins by liquid scintillation counter analysis relative to control.
Series [5] in a line: Inhibition of bovine heart PDE1 using [3H]cGMP as substrate incubated for 10 mins by liquid scintillation counter analysis. Details: species or system Bos taurus.
Series [6] can be described thus: Selectivity index, ratio of IC50 for inhibition of bovine heart PDE1to IC50 for inhibition of human PDE5.

In general, IC50 refers to the concentration at which inhibition is half-maximal. The term inhibition denotes the change of the read-out against control, counted positive when it falls. The term solubility denotes the concentration that dissolves in the medium under given conditions. Low readings indicate a poorly soluble substance, high ones a readily soluble substance. By logD is commonly meant the decadic logarithm of the distribution of all forms, ionised or not, between an organic phase and buffer at a given pH.

Converted amounts (≈) assume the structure as drawn.

Compound `CCCNc1nc(Nc2cccc(S(N)(=O)=O)c2)nc2cc(OC)c(OC)cc12` displayed an IC50 in series [1] of 1440 nM. The inhibition in series [2] came to 91.6%.

Take `COc1cc2nc(Nc3cccc(S(N)(=O)=O)c3)nc(NC3CCN(Cc4ccccc4)CC3)c2cc1OC`: 1640 nM corresponded to half-maximal inhibition in series [1] (IC50). Further, the inhibition in series [2] came out at 93.7%.

Consider `CN1CCN(S(=O)(=O)c2cccc(Nc3nc(NCc4ccccc4)c4ncn(C)c4n3)c2)CC1`, for which the inhibition in series [2] was 69%.

`Cn1cnc2c(NCc3ccccc3)nc(Nc3cccc(S(N)(=O)=O)c3)nc21` displayed an IC50 in series [1] of 4460 nM. In series [2], the inhibition was 86.1%.

With `CCCNc1nc(Nc2ccc(S(=O)(=O)N3CCN(C)CC3)cc2)nc2c1ncn2C`, the IC50 in series [1] came out at 18900 nM. Also, the inhibition in series [2] is 93.6%.

For `CC(C)CNc1nc(Nc2cccc(S(=O)(=O)N3CCN(C)CC3)c2)nc2c1ncn2C`, the IC50 in series [1] worked out at 33300 nM. Further, in series [2], the inhibition is 91.8%.

The compound `CN1CCN(S(=O)(=O)c2ccc(Nc3nc(NCc4ccccc4)c4ccccc4n3)cc2)CC1` registered a 50% inhibitory concentration (IC50) in series [1] of 490 nM. The inhibition in series [2] was determined as 96.5%.

In turn, `CCCNc1nc(Nc2ccc(S(=O)(=O)N3CCN(C)CC3)cc2)nc2ccccc12` displayed an IC50 in series [1] of 410 nM. The amount in solution in series [3] (solubility at 7 h) came to 0.1 µg/mL (≈ 0.227 µM). In series [4], this compound yielded a logD at 7 h of 3.92. The inhibition in series [2] was 95.6%; in the series filed under Bos taurus, 46.8%.

Take `CN(C)CCNc1nc(Nc2cccc(S(N)(=O)=O)c2)nc2ccccc12`: the IC50 in series [1] was determined as 9390 nM. Also, the inhibition in series [2] stood at 72.2%.

In turn, `NS(=O)(=O)c1cccc(Nc2nc(NC3CCN(Cc4ccccc4)CC3)c3nc[nH]c3n2)c1` displayed an IC50 in series [1] of 290 nM. In addition, in series [3], the solubility at 7 h is 150 µg/mL (≈ 313 µM). The compound also showed a logD at 7 h in series [4] of 2.16. Moreover, the inhibition in series [2] was 94.3%; in the series listed under Bos taurus, 31.2%.

With `CN(C)CCNc1nc(Nc2cccc(S(=O)(=O)N3CCN(C)CC3)c2)nc2ccccc12`, the half-inhibitory concentration (IC50) in series [1] came out at 5280 nM. For the same compound, in series [2], the inhibition was determined as 75.3%.

Take `CN1CCN(S(=O)(=O)c2cccc(Nc3nc(NCc4cccs4)c4ccccc4n3)c2)CC1`: the IC50 in series [1] turned out to be 520 nM. In series [2], the inhibition is 93.9%.

Take `COc1cc2nc(Nc3cccc(S(N)(=O)=O)c3)nc(NC3CCN(C(C)C)CC3)c2cc1OC`: the IC50 in series [1] turned out to be 3410 nM. Besides, the inhibition in series [2] worked out at 79.3%.

In series [1], `CC(C)N1CCC(Nc2nc(Nc3cccc(S(N)(=O)=O)c3)nc3ccccc23)CC1` had an IC50 of 1030 nM. In series [2], the inhibition is 96.3%.

In turn, `CC(C)CNc1nc(Nc2ccc(S(=O)(=O)N3CCN(C)CC3)cc2)nc2ccccc12` had an IC50 in series [1] of 360 nM. The compound also returned a solubility at 7 h in series [3] of 3 µg/mL (≈ 6.6 µM). In series [4], this compound yielded a logD at 7 h of 3.68. In addition, the inhibition in series [2] was 99%; in the series filed under Bos taurus, 44.8%.

On to `CCCNc1nc(Nc2cccc(S(=O)(=O)N3CCN(C)CC3)c2)nc2c1ncn2C`, for which the IC50 in series [1] came to 43200 nM. In addition, in series [2], the inhibition came out at 93.6%.

Compound `CCCc1nn(C)c2c(=O)[nH]c(-c3cc(S(=O)(=O)N4CCN(C)CC4)ccc3OCC)nc12` gave a solubility in series [3] (buffer, pH 7.4, 7 h) of 180 µg/mL (≈ 379 µM). The compound further had a logD at 7 h in series [4] of 2.69.

`CN1CCN(S(=O)(=O)c2cccc(Nc3nc(NCc4ccccc4)c4ccccc4n3)c2)CC1` showed an IC50 in series [1] of 500 nM. In series [2], the inhibition turned out to be 98.3%.

In series [1], `COc1cc2nc(Nc3ccc(S(N)(=O)=O)cc3)nc(NCC(C)C)c2cc1OC` returned an IC50 of 3970 nM. Also, in series [2], the inhibition was 94.6%.

Turning to `NS(=O)(=O)c1cccc(Nc2nc(NCc3ccccc3)c3ccccc3n2)c1`, the IC50 in series [1] was 100 nM; in series [5], 11800 nM. Further, the concentration in solution in series [3] (solubility at 7 h) came to 2.1 µg/mL (≈ 5.18 µM). In series [4], this compound gave a pH-dependent lipophilicity (logD) at 7 h of 3.87. In addition, the inhibition is 101% in series [2] and 73.9% in the series listed under Bos taurus. The Ratio IC50 in series [6] stood at 100.

Regarding `COc1cc2nc(Nc3cccc(S(N)(=O)=O)c3)nc(NCC(C)C)c2cc1OC`, in series [1], the IC50 came out at 5230 nM. The inhibition in series [2] came to 94.9%.

Regarding `COc1cc2nc(Nc3cccc(S(=O)(=O)N4CCN(C)CC4)c3)nc(NC3CCN(C(C)C)CC3)c2cc1OC`, in series [2], the inhibition was 18.5%.

For the compound `NS(=O)(=O)c1cccc(Nc2nc(NC3CCN(Cc4ccccc4)CC3)c3ccccc3n2)c1`, inhibition in series [1] was half-maximal at 220 nM (IC50). This compound gave a solubility at 7 h in series [3] of 4.2 µg/mL (≈ 8.6 µM). Further, in series [4], the logD at 7 h came to 3.37. For the same compound, the inhibition in series [2] was determined as 93.4%; in the series listed under Bos taurus it was 61.7%.

The compound `CN1CCN(S(=O)(=O)c2ccc(Nc3nc(NCc4ccccc4)c4ncn(C)c4n3)cc2)CC1` returned an IC50 in series [1] of 38400 nM. The inhibition in series [2] amounted to 97.3%.

In series [1], `CC(C)N1CCC(Nc2nc(Nc3cccc(S(=O)(=O)N4CCN(C)CC4)c3)nc3ccccc23)CC1` showed an IC50 of 150 nM. Moreover, the concentration in solution in series [3] (solubility at 7 h) came to 1770 µg/mL (≈ 3380 µM). Also, the logD at 7 h in series [4] amounted to 2.15. For the same compound, the inhibition is 93.6% in series [2] and 28.2% in the series filed under Bos taurus.

In the case of `CC(C)N1CCC(Nc2nc(Nc3cccc(S(N)(=O)=O)c3)nc3[nH]cnc23)CC1`, the inhibition in series [2] was found to be 32.7%.

In series [1], `CC(C)CNc1nc(Nc2ccc(S(=O)(=O)N3CCN(C)CC3)cc2)nc2c1ncn2C` displayed an IC50 of 28500 nM. For the same compound, the inhibition in series [2] is 96%.

Compound `CN1CCN(S(=O)(=O)c2cccc(Nc3nc(NCc4ccccc4)c4nc[nH]c4n3)c2)CC1` gave an IC50 in series [1] of 2020 nM. Further, in series [2], the inhibition was 99.3%.

The compound `CCCNc1nc(Nc2cccc(S(=O)(=O)N3CCN(C)CC3)c2)nc2ccccc12` returned an IC50 in series [1] of 600 nM. The inhibition in series [2] came to 96.9%.

Take `CC(C)CNc1nc(Nc2cccc(S(=O)(=O)N3CCN(C)CC3)c2)nc2ccccc12`: the IC50 in series [1] was found to be 430 nM. For the same compound, in series [3], the solubility at 7 h turned out to be 0.6 µg/mL (≈ 1.32 µM). The logD at 7 h in series [4] came out at 3.55. The inhibition is 97.3% in series [2] and 67.2% in the series filed under Bos taurus.

In series [1], `Cn1cnc2c(NCc3ccccc3)nc(Nc3ccc(S(N)(=O)=O)cc3)nc21` had an IC50 of 23000 nM. For the same compound, in series [2], the inhibition stood at 96.5%.
